Several values for one entry are separate records, joined by “and”; a condition that tells them apart may be missing. Equal values may be shown once.
Columns and labels:
[1] = system: mouse myocardial I/R injury; experiment: neutrophil recruitment in mouse myocardial I/R injury (multi-photon microscopy, flow cytometry); assay type: in vivo; details: I/R 35/60 minutes
From the text: C57BL/6J wild-type mice (000664; JAX) were originally obtained from the Jackson Laboratory. LysM-EGFP or Lyz2-EGFP mice were originally obtained from Albert Einstein College of Medicine through a material transfer agreement. Mice were fed a standard rodent chow diet and were housed in microisolator cages in a pathogen-free facility in the Center for Comparative Medicine at UConn Health. All experiments followed the UConn Health Institutional Animal Care and Use Committee (IACUC) guidelines, and approval for the use of rodents was obtained from the UConn Health IACUC according to criteria outlined in the Guide for the Care and Use of Laboratory Animals from the National Institutes of Health. Both male and female mice aged from 12 to 16 weeks were used in the experiments.
Mice were subjected to 35 minutes of myocardial ischemia and 1 (for multi-photon microscopy and flow cytometry) or 22-26 (for TTC-phthalo-blue staining) hours of reperfusion. […] Briefly, anesthesia was induced with an intraperitoneal injection of ketamine hydrochloride (125 mg·kg^−1) and xylazine (12.5 mg·kg^−1). Mice were intubated with 24G×3/4″ Surflo i.v. catheter and ventilated using MiniVent 845 (Harvard Apparatus).
Surgeries were performed under an SMZ168 Stereo Zoom microscope (Motic). Ischemia was achieved by ligating the left anterior descending coronary artery (LAD) using a 6-0 silk suture with a section of PE-10 tubing placed over the LAD, 1 mm from the tip of the normally positioned left atrium. One important problem in drug administration is water solubility, which greatly affects drug absorption and bioavailability. […] In clinics, the primary percutaneous coronary intervention aims to be performed less than 90 min (within 60 min is preferable) after the patient arrives. […] After occlusion for 35 minutes, reperfusion was initiated by releasing the ligature and removing the PE-10 tubing. The chest wall was closed, the animal extubated, and body temperature was maintained by use of a 37° C. warm pad. Hearts were harvested 1 or 22-26 hours later. The loosened suture was left in place and then retied for the purpose of evaluating the ischemic area. Sham control and no drug administered control were performed as well.
To assess the neutrophil recruitment in myocardial I/R injury, LysM-EGFP mice underwent 35 minutes of ischemia and 1 hour of reperfusion. […] After being fixed with 1% PFA and washes with ice-cold PBS, cell fluorescence was assessed with an LSRII (BD Biosciences, San Jose, CA) and analyzed with FlowJo software (version 10.6). […]

[2] = pharmacokinetics after i.p. injection in mice; assay type: in vivo, mouse; details: plasma
Protocol: Pharmacokinetics was performed through a service provided by the Shanghai Institute of Materia Medica. […] Blood samples (20 μL) were collected at 3 min, 15 min, 45 min, 2 h, 4 h, 8 h, and 24 h through femoral vein phlebotomy. 200 μL of methanol:acetonitrile (1:1, v/v) with internal standard was added to […] of plasma and vortexed thoroughly. After centrifuging at 11000 rpm, RT for 5 min, 20 μL of the supernatant was collected and mixed with 20 μL of water for analysis. Samples were analyzed by a TQ-S triple quadrupole mass spectrometer (Waters, Milford, MA, USA). An Acquity Uplc Beh C18 Column (1.7 μm, 2.0 mm×50 mm, Waters) was used for the analysis. Gradient elution was applied consisting of 5 mM […] containing 0.1% formic acid and methanol:acetonitrile (1/9, v/v) containing 0.1% formic acid.

CC(C)(C)C(=O)/C(=C\c1cccc([N+](=O)[O-])c1)n1cncn1 [Nexinhib20, 4,4-dimethyl-1-(3-nitrophenyl)-2-(1H-1,2,4-triazol-1-yl)-1-penten-3-one]
neutrophils retained in the blood circulation compared to vehicle controls ([1]; 1 μmol per mouse i.p.): doubled | percentage of neutrophils in heart leukocytes ([1]; 1 μmol per mouse i.p., vehicle about 50%): about 30% | heart neutrophil counts (CD45^+Ly6G^+) ([1]; 1 μmol per mouse i.p., vehicle about 6000): about 2000 | LysM-GFP^+ leukocyte recruitment to the coronary artery (EGFP fluorescence) ([1]; LysM-EGFP mice, 1 μmol per mouse i.p. 30 minutes before reperfusion): significantly limited | concentration at 4 h ([2]; male, mouse, ip, 0.8 μmol per mouse, 4 h): < 28800 ng/mL and < 96 nM | half-life ([2]; male, mouse, ip, 0.8 μmol per mouse, one phase exponential decay fit, 95% CI): 11.5 to 16.3 min | time within which Nexinhib20 was degraded [2]: ≤ 2 h
